From ChEMBL document CHEMBL3813607, “New antitumour agents with α,β-unsaturated δ-lactone scaffold: Synthesis and antiproliferative activity of (-)-cleistenolide and analogues” (Bioorg Med Chem Lett, 2016)

Columns and labels:
K562 = assay: Cytotoxicity against human K562 cells assessed as cell growth inhibition after 72 hrs by MTT assay; type: functional, cell-based; conditions: K562, 72 h
[1] = Cytotoxicity against human HL60 cells assessed as cell growth inhibition after 72 hrs by MTT assay; type: functional, cell-based; conditions: HL-60, 72 h
Jurkat = assay: Cytotoxicity against human Jurkat cells assessed as cell growth inhibition after 72 hrs by MTT assay; type: functional, cell-based
Raji = assay: Cytotoxicity against human Raji cells assessed as cell growth inhibition after 72 hrs by MTT assay; type: functional, cell-based
MCF7 = assay: Cytotoxicity against human MCF7 cells assessed as cell growth inhibition after 72 hrs by MTT assay; type: functional, cell-based; conditions: MCF7, 72 h
MDA-MB-231 [2] = assay: Cytotoxicity against human MDA-MB-231 cells assessed as cell growth inhibition after 72 hrs by MTT assay; type: functional, cell-based; conditions: MDA-MB-231, 72 h
HeLa = assay: Cytotoxicity against human HeLa cells assessed as cell growth inhibition after 72 hrs by MTT assay; type: functional, cell-based
A549 [3] = assay: Cytotoxicity against human A549 cells assessed as cell growth inhibition after 72 hrs by MTT assay; type: functional, cell-based; conditions: A549, 72 h
MRC5 = assay: Cytotoxicity against human MRC5 cells assessed as cell growth inhibition after 72 hrs by MTT assay; type: functional, cell-based; conditions: MRC5, 72 h
A549 [4] = assay: Potency index, ratio of Doxorubicin IC50 to ratio of compound IC50 for human A549 cells; type: functional
MDA-MB-231 [5] = assay: Potency index, ratio of Doxorubicin IC50 to ratio of compound IC50 for human MDA-MB-231 cells; type: functional

Compound	IC50 (K562)	IC50 [1]	IC50 (Jurkat)	IC50 (Raji)	IC50 (MCF7)	IC50 (MDA-MB-231 [2])	IC50 (HeLa)	IC50 (A549 [3])	IC50 (MRC5)	Ratio IC50 (A549 [4])	Ratio IC50 (MDA-MB-231 [5])
CC(=O)O[C@@H]1C=CC(=O)O[C@@H]1[C@@H](COC(=O)/C=C/c1ccccc1)OC(C)=O	0.28 µM	24.6 µM	0.25 µM	11.2 µM	16 µM	1.46 µM	0.21 µM	2.02 µM	> 100 µM	2.5	
CC(=O)O[C@@H]1C=CC(=O)O[C@@H]1[C@@H](COC(=O)c1ccccc1)OC(C)=O	7.65 µM	1.21 µM	14.2 µM	36.9 µM	26.1 µM	2.25 µM	7.32 µM	16.3 µM	> 100 µM		
CC(=O)O[C@@H]1C=CC(=O)O[C@@H]1[C@@H](COC(=O)c1c(Cl)cc(Cl)cc1Cl)OC(C)=O	1.02 µM	36.2 µM	6.25 µM	11.2 µM	0.62 µM	0.02 µM	14 µM	4.23 µM	45.7 µM		4.5
COc1cccc(C(=O)OC[C@@H](OC(C)=O)[C@H]2OC(=O)C=C[C@H]2OC(C)=O)c1	2.69 µM	0.89 µM	8.31 µM	25.6 µM	4.71 µM	7.46 µM	1.95 µM	11 µM	91.3 µM		
COc1cccc2c1C(=O)c1c(O)c3c(c(O)c1C2=O)C[C@@](O)(C(=O)CO)C[C@@H]3O[C@H]1C[C@H](N)[C@H](O)[C@H](C)O1 [DOXORUBICIN]		0.92 µM									
